Experimental data as given in patent publication US20090317501A1, “Pinus Pinea Plant Extracts For Treating Osteoporosis and the Extraction Process Thereof” (priority 2006, published 2009).

Test system: osteoclastic bone resorption
Test: Bone resorption screening, CTX release by osteoclasts on bovine bone slices
Type: cell-based, human
Settings: positive control; DMSO negative control set to 100%; 5 days incubation
Description: Studies have determined that osteoclasts are largely derived from CD14 positive monocytes (J. Haemotol, 1999 July; 106(1):167-70). Clonal analysis of haematopoietic cells by surface phenotypes has been used to further identify osteoclast precursor by characterizing osteoclast like cells distinct from other haematopoietic progenitors (Lee et.al; 1992b Muguruma & Lee; 1988). Surface phenotype analysis has shown that human osteoclasts are derived from CD14 monocytes (Massey & Flanagan, 1999). CD 14 marker is strongly expressed on monocytes, the putative osteoclast precursor in peripheral blood and CD14 positive monocytes have been selected for osteoclastogenesis. (Clin. Sci (Lond) 2000, August, 99 (2): 133-40).
The osteoclasts were isolated as CD 14 positive monocytes and were differentiated into osteoclasts for 10-12 days. Hereafter the osteoclasts were lifted by trypsin, counted and seeded on bovine bone slices at a density of 40,000 cells per bone slice. The osteoclasts were seeded on the cone slices for one day before the plant extracts were added. The osteoclasts were hereby allowed to attach and initiate the resorption activity. […]
The bone resorption experiment was ended after 5 days of incubation and the cell viability was measured by the use of the Alamar blue assay as represented in FIG. 3. […]

**Q.** With CO/C1=C\C(C)=C\[C@@H](C)[C@@H](O)[C@@H](C)C/C(C)=C/C=C/[C@H](OC)[C@@H]([C@@H](C)[C@@H](O)[C@H](C)[C@@]2(O)C[C@@H](O)[C@H](C)[C@@H](C(C)C)O2)OC1=O [Bafilomycin] as the compound, how does the “remaining bone resorption (CTX release) as % of DMSO control” value read?
**A.** The value was “approximately 8%”.
